Results from patent publication US12441704B2, “Compounds active towards nuclear receptors” (NUEVOLUTION A/S, priority 2019, dated 2025).
Where two headings read alike, the source gives them in different places. Each block holds one compound with its values, some of them ahead of it.

Target: T1, RORγ ligand-binding domain fused to Gal4 (Homo sapiens, UniProt P51449)
T1 construct: Gal4 (galactose-responsive transcription factor); expressed in transfected cells; host or cells: HEK293
T1 sequence (P51449 269-508 limits assumed): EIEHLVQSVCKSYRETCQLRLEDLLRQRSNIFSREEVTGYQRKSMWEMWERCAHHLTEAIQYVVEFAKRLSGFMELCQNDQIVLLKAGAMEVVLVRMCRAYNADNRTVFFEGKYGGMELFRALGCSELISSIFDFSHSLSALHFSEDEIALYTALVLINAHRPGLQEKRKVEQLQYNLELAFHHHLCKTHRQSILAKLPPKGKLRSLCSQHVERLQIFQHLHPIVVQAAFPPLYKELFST
Assay: RORγ Reporter Assay (Gal4)
Type: cell-based
Method: The HEK293 cell line is co-transfected transiently with two plasmids, one with the RORγ ligand-binding domain fused to galactose-responsive transcription factor (Gal4), and the other with the luciferase reporter gene and Gal binding sites (UAS). This construction allows to determine the RORγ activity in a cellular system through the measurement of luminescence.
A suspension of RORγ reporter cells was dispensed into plates and cultured 2 h at 37° C. and 5% CO2. Media formulation consisted in DMEM/F-12 medium (Gibco) supplemented with 10% heat inactivated FBS (Sigma-Aldrich), non-essential aminoacids (Sigma-Aldrich), 2 mM Glutamax (Gibco) and 100 U/mL penicillin (Sigma-Aldrich). Dose-response curves with compounds were prepared in 100% DMSO and further diluted 100-fold in culture medium. Compound solutions were added to the plate containing cells (final DMSO concentration of 0.1%) and incubated for 24 h at 37° C. and 5% CO2. Luciferase detection reagent was added to each well, and relative light units (RLUs) were quantified from each assay well using a plate reading luminometer.
Values of average RLU±S.D. were computed for all treatment sets, followed by the calculations of percent-reduction of RORγ activity in response to respective test compound. The following formula was used: activity=100*[1−[x test compound/average vehicle] where the theoretical minimum reduction (0% reduction).

[1] = HEK293 cells co-transfected with RORγ LBD-Gal4 and luciferase reporter, 24 h incubation, absolute EC50, read-out: EC50

SMILES: NC(=O)CN1CC[C@@H](CNc2ncnc(N(Cc3ccc(OC(F)F)cc3F)C3CCC3)c2F)[C@H](O)C1 (single isomer, unassigned) [Example A7-15-1]
EC50 [1]: 51 nM

SMILES: NC(=O)CN1CC[C@H](CNc2ncnc(N(Cc3cnc(C(F)(F)F)nc3)C3CC3)c2F)[C@@H](O)C1 (single isomer, unassigned) [Example A7-17-1]
EC50 [1]: 40 nM
EC50 (compounds of the present disclosure, value from Table 2 herein, read-out: Gal4 assay EC50): < 100 nM

SMILES: NC(=O)CN1CC[C@H](CNc2ncnc(N(Cc3cnc(C(F)(F)F)nc3)C3CCC3)c2F)[C@@H](O)C1 (single isomer, unassigned) [Example A7-18-1]
EC50 [1]: 140 nM

SMILES: NC(=O)CN1CC[C@H](CNc2ncnc(N(Cc3cnc(C(F)(F)F)nc3)C3CCC3)c2F)[C@@H](O)C1 (single isomer, unassigned) [Example A7-18-2]
EC50 [1]: 82 nM

SMILES: CCN(Cc1ccc(C(F)(F)F)cc1)c1ncnc(NC[C@H]2CCN(CC(N)=O)C[C@@H]2O)c1F (single isomer, unassigned) [Example A7-21-1]
EC50 [1]: 9.3 nM

SMILES: NC(=O)CN1CC[C@H](CNc2ncnc(N(Cc3ccc(C(F)(F)F)cc3F)C3CC3)c2F)[C@@H](O)C1 (single isomer, unassigned) [Example A7-22-1]
EC50 [1]: 4.9 nM

SMILES: NC(=O)CN1CC[C@H](CNc2ncnc(N(Cc3ccc(C(F)(F)F)cc3F)C3CC3)c2F)[C@@H](O)C1 (single isomer, unassigned) [Example A7-22-2]
EC50 [1]: 3.4 nM

SMILES: NC(=O)CN1CC[C@@H](CNc2ncnc(N(Cc3ccc(C(F)(F)F)nc3)C3CCC3)c2F)[C@H](O)C1 (single isomer, unassigned) [Example A7-23-1]
EC50 [1]: 81 nM

SMILES: NC(=O)CN1CC[C@@H](CNc2ncnc(N(Cc3ccc(C(F)F)nc3)C3CC3)c2F)[C@H](O)C1 (single isomer, unassigned) [Example A7-25-1]
EC50 [1]: 630 nM

SMILES: CC(F)(F)c1ccc(CN(c2ncnc(NC[C@@H]3CCN(CC(N)=O)C[C@H]3O)c2F)C2CC2)cn1 (single isomer, unassigned) [Example A7-29-1]
EC50 [1]: 35 nM

SMILES: NC(=O)CN1CC[C@@H](CNc2ncnc(N(Cc3ccc(OC(F)F)cc3F)C3CCC3)c2F)[C@H](O)C1 (stereo in doubt) [Example A7-15, rac-2-((3R,4R)-4-(((6-(cyclobutyl(4-(difluoromethoxy)-2-fluorobenzyl)amino)-5-fluoropyrimidin-4-yl)amino)methyl)-3-hydroxypiperidin-1-yl)acetamide]
EC50 [1]: 160 nM

SMILES: NC(=O)CN1CC[C@H](CNc2ncnc(N(Cc3ccc(OC(F)F)cc3F)C3CCC3)c2F)[C@@H](O)C1 (stereo in doubt) [Example A7-15-2, rel-2-((3R,4R)-4-(((6-(cyclobutyl(4-(difluoromethoxy)-2-fluorobenzyl)amino)-5-fluoropyrimidin-4-yl)amino)methyl)-3-hydroxypiperidin-1-yl)acetamide]
EC50 [1]: 310 nM

SMILES: NC(=O)CN1CC[C@@H](CNc2ncnc(N(Cc3ccc(C(F)F)nc3)C3CC3)c2F)[C@H](O)C1 (stereo in doubt) [Example A7-25, rac-2-((3R,4R)-4-(((6-(cyclopropyl((6-(difluoromethyl)pyridin-3-yl)methyl)amino)-5-fluoropyrimidin-4-yl)amino)methyl)-3-hydroxypiperidin-1-yl)acetamide]
EC50 [1]: 330 nM

SMILES: NC(=O)CN1CC[C@H](CNc2ncnc(N(Cc3ccc(C(F)F)nc3)C3CC3)c2F)[C@@H](O)C1 (stereo in doubt) [Example A7-25-2, rel-2-((3R,4R)-4-(((6-(cyclopropyl((6-(difluoromethyl)pyridin-3-yl)methyl)amino)-5-fluoropyrimidin-4-yl)amino)methyl)-3-hydroxypiperidin-1-yl)acetamide]
EC50 [1]: 320 nM

Further lines, results first:

EC50 [1]: 49 nM
SMILES: NC(=O)CN1CCC(CNc2ncnc(N(Cc3ccc(C(F)(F)F)cc3)C3CC3)c2F)C(C(F)(F)F)C1 (single isomer, unassigned) [Example A7-07-1, 2-(4-(((6-(cyclopropyl(4-(trifluoromethyl)benzyl)amino)-5-fluoropyrimidin-4-yl)amino)methyl)-3-(trifluoromethyl)piperidin-1-yl)acetamide]

EC50 [1]: 93 nM
SMILES: NC(=O)CN1CCC(CNc2ncnc(N(Cc3ccc(C(F)(F)F)cc3)C3CC3)c2F)C(C(F)(F)F)C1 (single isomer, unassigned) [Example A7-07-2, 2-(4-(((6-(cyclopropyl(4-(trifluoromethyl)benzyl)amino)-5-fluoropyrimidin-4-yl)amino)methyl)-3-(trifluoromethyl)piperidin-1-yl)acetamide]

EC50 [1]: 170 nM
SMILES: NC(=O)CN1CCC(CNc2ncnc(N(Cc3ccc(C(F)(F)F)cc3)C3CC3)c2F)C(C(F)(F)F)C1 (single isomer, unassigned) [Example A7-07-4, 2-(4-(((6-(cyclopropyl(4-(trifluoromethyl)benzyl)amino)-5-fluoropyrimidin-4-yl)amino)methyl)-3-(trifluoromethyl)piperidin-1-yl)acetamide]

EC50 [1]: 25 nM
SMILES: NC(=O)CN1CC[C@@H](CNc2ncnc(N(Cc3ccc(C(F)(F)F)cc3)C3CCC3)c2F)[C@H](O)C1 (single isomer, unassigned) [Example A7-16-1]

EC50 [1]: 35 nM
SMILES: CN(Cc1ccc(C(F)(F)F)cc1)c1ncnc(NC[C@H]2CCN(CC(N)=O)C[C@@H]2O)c1F (single isomer, unassigned) [Example A7-20-1]

EC50 [1]: 32 nM
SMILES: CN(Cc1ccc(C(F)(F)F)cc1)c1ncnc(NC[C@H]2CCN(CC(N)=O)C[C@@H]2O)c1F (single isomer, unassigned) [Example A7-20-2]

EC50 [1]: 13 nM
SMILES: CCN(Cc1ccc(C(F)(F)F)cc1)c1ncnc(NC[C@H]2CCN(CC(N)=O)C[C@@H]2O)c1F (single isomer, unassigned) [Example A7-21-2]

EC50 (compounds of the present disclosure, source: Table 2 herein, read-out: Gal4 assay EC50): < 100 nM
SMILES: NC(=O)CN1CCC(CO)(CNc2ncnc(N(Cc3ccc(C(F)(F)F)cc3)C3CC3)c2F)C(O)C1 (single isomer, unassigned) [Example C4-1-2, 2-(4-(((6-(Cyclopropyl(4-(trifluoromethyl)benzyl)amino)-5-fluoropyrimidin-4-yl)amino)methyl)-3-hydroxy-4-(hydroxymethyl)piperidin-1-yl)acetamide]

EC50 [1]: 61 nM
SMILES: NC(=O)CN1CC[C@@](O)(CNc2ncnc(N(Cc3ccc(C(F)(F)F)cc3)C3CC3)c2F)[C@H](O)C1 (single isomer, unassigned) [Example D5-02-1-2]

EC50 [1]: 9.3 nM
SMILES: CCN(Cc1ccc(C(F)(F)F)cc1F)c1ncnc(NC[C@]2(O)CCN(CC(N)=O)C[C@H]2O)c1F (single isomer, unassigned) [Example D5-03-1-2]

EC50 [1]: 19 nM
SMILES: NC(=O)CN1CC[C@@H](CNc2ncnc(N(Cc3ccc(C(F)(F)F)cc3)C3CCC3)c2F)[C@H](O)C1 (stereo in doubt) [Example A7-16, rac-2-((3R,4R)-4-(((6-(cyclobutyl(4-(trifluoromethyl)benzyl)amino)-5-fluoropyrimidin-4-yl)amino)methyl)-3-hydroxypiperidin-1-yl)acetamide]

EC50 [1]: 22 nM
SMILES: NC(=O)CN1CC[C@H](CNc2ncnc(N(Cc3ccc(C(F)(F)F)cc3)C3CCC3)c2F)[C@@H](O)C1 (stereo in doubt) [Example A7-16-2, rel-2-((3R,4R)-4-(((6-(cyclobutyl(4-(trifluoromethyl)benzyl)amino)-5-fluoropyrimidin-4-yl)amino)methyl)-3-hydroxypiperidin-1-yl)acetamide]
